System: 156681-154-R-J1 tumor spheroid viability
Assay: Anticancer human tumor 156681-154-R-J1 patient-derived melanoma cell line growth inhibition
Details: spheroids with HUVEC and MSC; for IC50: curve of first compound; for viability, T/C: stronger effect = lower value
In short: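 Complex spheroids of malignant cells with endothelial cells and mesenchymal stem cells; agents alone or combined, from near clinical Cmax (or 10 microM if unknown) down in half-log steps, 0.25% DMSO final.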

[1] = second compound 1 µM, first compound 0.0316 µM
[2] = second compound 1 µM, first compound 0.1 µM
[3] = second compound 1 µM, first compound 0.316 µM
[4] = second compound 1 µM, first compound 1 µM
[5] = second compound 1 µM, first compound 3.16 µM
[6] = second compound 1 µM, first compound 10 µM
[7] = second compound 3.16 µM, first compound 0.0316 µM
[8] = second compound 3.16 µM, first compound 0.1 µM
[9] = second compound 3.16 µM, first compound 0.316 µM
[10] = second compound 3.16 µM, first compound 1 µM
[11] = second compound 3.16 µM, first compound 3.16 µM
[12] = second compound 3.16 µM, first compound 10 µM
[13] = second compound 10 µM, first compound 0.0316 µM
[14] = second compound 10 µM, first compound 0.1 µM
[15] = second compound 10 µM, first compound 0.316 µM
[16] = second compound 10 µM, first compound 1 µM
[17] = second compound 10 µM, first compound 3.16 µM
[18] = second compound 10 µM, first compound 10 µM
[19] = second compound 31.6 µM, first compound 0.0316 µM
[20] = second compound 31.6 µM, first compound 0.1 µM
[21] = second compound 31.6 µM, first compound 0.316 µM
[22] = second compound 31.6 µM, first compound 1 µM
[23] = second compound 31.6 µM, first compound 3.16 µM
[24] = second compound 31.6 µM, first compound 10 µM
[25] = second compound 100 µM, first compound 0.0316 µM
[26] = second compound 100 µM, first compound 0.1 µM
[27] = second compound 100 µM, first compound 0.316 µM
[28] = second compound 100 µM, first compound 1 µM
[29] = second compound 100 µM, first compound 3.16 µM
[30] = second compound 100 µM, first compound 10 µM
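Note: spheroids exposed to compounds for 7 days before readout.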
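Throughout, for viability, T/C: percent of vehicle control viability where 100% = DMSO-treated spheroids.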

Row | SMILES | IC50 (second compound 1 µM) | IC50 (second compound 3.16 µM) | IC50 (second compound 10 µM) | IC50 (second compound 31.6 µM) | IC50 (second compound 100 µM) | viability, T/C [1] | viability, T/C [2] | viability, T/C [3] | viability, T/C [4] | viability, T/C [5] | viability, T/C [6] | viability, T/C [7] | viability, T/C [8] | viability, T/C [9] | viability, T/C [10] | viability, T/C [11] | viability, T/C [12] | viability, T/C [13] | viability, T/C [14] | viability, T/C [15] | other results
1 | CC1COCCN1c1cc(-c2ccnn2C)c2ccnc(-c3ccn[nH]3)c2n1 (stereo not given) + Cn1nnc2c(C(N)=O)ncn2c1=O | 0.0907 µM | 0.0898 µM | 0.0443 µM | < 0.0316 µM | < 0.0316 µM | 66.7% | 48.5% | 32.1% | 24.1% | 22.5% | 20.2% | 73.5% | 47.7% | 26.1% | 21.3% | 20.2% | 18% | 54.4% | 39.3% | 23.2% | viability, T/C [16]: 19.2%; viability, T/C [17]: 21.9%; viability, T/C [18]: 15.6%; viability, T/C [19]: 38%; viability, T/C [20]: 31.4%; viability, T/C [21]: 18.6%; viability, T/C [22]: 20.2%; viability, T/C [23]: 21.8%; viability, T/C [24]: 16.2%; viability, T/C [25]: 23.6%; viability, T/C [26]: 17.1%; viability, T/C [27]: 12.6%; viability, T/C [28]: 15.3%; viability, T/C [29]: 16%; viability, T/C [30]: 17%
2 | COc1cc(C)[nH]c(=O)c1CN1CCc2c(Cl)cc(C(OC)C3COC3)c(Cl)c2C1=O (stereo not given) + Cn1nnc2c(C(N)=O)ncn2c1=O | > 10 µM | > 10 µM | > 10 µM | > 10 µM | > 10 µM | 115% | 103% | 116% | 115% | 81.2% | 88.5% | 107% | 144% | 90.7% | 74.9% | 127% | 130% | 84.5% | 81% | 77.7% | viability, T/C [16]: 75.2%; viability, T/C [17]: 98.7%; viability, T/C [18]: 67%; viability, T/C [19]: 70.2%; viability, T/C [20]: 56.7%; viability, T/C [21]: 60.4%; viability, T/C [22]: 58.4%; viability, T/C [23]: 54%; viability, T/C [24]: 65.7%; viability, T/C [25]: 45%; viability, T/C [26]: 66%; viability, T/C [27]: 51.7%; viability, T/C [28]: 62.9%; viability, T/C [29]: 68.7%; viability, T/C [30]: 61.4%
3 | Cc1cc(C)c(CNC(=O)c2cc(-c3ccc(CN4CCOCC4)cc3)cc3c2cnn3C2CCCC2)c(=O)[nH]1 + Cn1nnc2c(C(N)=O)ncn2c1=O | > 10 µM | > 10 µM | > 10 µM | > 10 µM | > 10 µM | 72.6% | 107% | 90.2% | 92.4% | 79.6% | 82.4% | 90.6% | 72.7% | 83.7% | 87.2% | 68.8% | 84.4% | 105% | 73.3% | 72.4% | viability, T/C [16]: 67.1%; viability, T/C [17]: 69.2%; viability, T/C [18]: 77.5%; viability, T/C [19]: 74.2%; viability, T/C [20]: 65.7%; viability, T/C [21]: 50.5%; viability, T/C [22]: 63%; viability, T/C [23]: 51.9%; viability, T/C [24]: 58.4%; viability, T/C [25]: 51.2%; viability, T/C [26]: 61.9%; viability, T/C [27]: 67.2%; viability, T/C [28]: 52.3%; viability, T/C [29]: 56%; viability, T/C [30]: 55.6%
4 | [2H]c1nc(C)nc([2H])c1-c1cc(NC[C@@H](C)c2cccc3c(C(=O)NC)ccnc23)ncn1 + Cn1nnc2c(C(N)=O)ncn2c1=O | > 10 µM | > 10 µM | > 10 µM | > 10 µM | 2.47 µM | 117% | 107% | 104% | 83.8% | 92.8% | 82.4% | 71.8% | 101% | 114% | 112% | 120% | 87.4% | 80% | 69.7% | 59.7% | viability, T/C [16]: 63.8%; viability, T/C [17]: 73.3%; viability, T/C [18]: 64.9%; viability, T/C [19]: 54.9%; viability, T/C [20]: 58.6%; viability, T/C [21]: 48.7%; viability, T/C [22]: 47.9%; viability, T/C [23]: 52%; viability, T/C [24]: 54%; viability, T/C [25]: 55.3%; viability, T/C [26]: 47.8%; viability, T/C [27]: 54.4%; viability, T/C [28]: 52.4%; viability, T/C [29]: 48.3%; viability, T/C [30]: 48.9%

From PubChem BioAssay AID1845195 (Molecular Pharmacology Branch, DTP, NCI, 2023)
